Columns and labels:
WT hepatocytes [1] = assay: Mitochondrial oxygen consumption rate and extracellular acidification rate (Seahorse); format: cell-based, murine
Description: (§1) CPACC treatment enhances adipose browning and lowers whole body weight. Given the potent mMg^2+ uptake inhibiting properties and low toxicity of CPACC, we hypothesized that CPACC could mimic Mrs2^−/− cellular phenotype. WT hepatocytes isolated from over 12 months old mice were treated with 50 μM CPACC for 48 hours. Control and CPACC treated hepatocytes were stained with BODIPY and TMRE for intracellular tracing using confocal imaging. […] Next it was determined if CPACC treatment affects the mitochondrial oxygen consumption rate. Freshly isolated WT hepatocytes were treated with 5-25 μM concentrations of CPACC for 16 hours before measurement of oxygen consumption rate. […] Since it was observed an enhancement of basal OCR in CPACC treated hepatocytes, the extracellular acidification rate was measured in control and CPACC treated hepatocytes and found it to be higher in the CPACC condition indicating higher glycolytic activity (FIG. 11G). […]
Mitochondrial oxygen consumption rate. […] Oxygen consumption rate (OCR) was measured at 37° C. in an XF96 extracellular flux analyzer (Seahorse Bioscience, Agilent) calibrated using Seahorse XF Calibrant solution (Seahorse Bioscience, Agilent) in a CO2-free incubator overnight. […] Data was collected using Agilent Seahorse Wave 2.6.1 Desktop software and analyzed using GraphPad Prism version 8 (Irrinki et al., 2011; Tomar et al., 2016).

WT hepatocytes [2] = assay: Confocal BODIPY/TMRE imaging of lipid droplets and mitochondrial potential in hepatocytes; format: cell-based, murine; conditions: 50 μM, 48 hours
Description: as §1
Confocal microscopic examination of cellular lipid localization and maintenance. […] Leica Application Suite X was used to quantify lipid-mitochondrial colocalization using line scan analysis followed by smooth curve fitting. […] The lipid droplet sizes and mitochondrial membrane potential were quantified using both Leica Application Suite X and ImageJ. All data was analyzed using GraphPad Prism v8.

[NH2][Co]([NH2])([NH2])([NH2])([NH2])[Cl] [CPACC, chloropentaammine cobalt (III) chloride]
maximal OCR (WT hepatocytes [1]; 5-25 μM, 16 hours): without a significant effect | extracellular acidification rate (WT hepatocytes [1]; treated versus control hepatocytes): higher | effect on mitochondrial function (TMRE) (WT hepatocytes [2]): no negative effect | lipid droplet size (WT hepatocytes [2]; hepatocytes from over 12 months old mice): marked reduction of lipid droplet size

Source: US20240415878A1, “Compositions and Methods for Modulating Mitochondrial Function” (Board of Regents, The University of Texas System, priority 2021, published 2024)
